Test results reported in EP0536603A1, “N-Methyl-nimodipine, process for its preparation, and its use as cerebral vasodilator” (BAYER AG, priority 1991, dated 1993).

Assays:
[1] = system: Ratten; assay: Rat swim test (Porsolt), antidepressant effect; type: in vivo; details: rats
Experimental: Die vorzügliche Eignung von N-Methyl-Nimodipin als Prodrug für Nimodipin zeigt sich auch in seiner antidepressiven Wirkung. Im Rattenschwimmtest (vgl. R.D. Porsolt et al., European Journal of Pharmacology 47; 379 bis 391) zeigen Ratten, die 20 mg der erfindungsgemäßen Verbindung per os appliziert bekommen, eine um ca. 20 % reduzierte Immobilitätsphase im Vergleich zur Kontrolle (n = 6).

[2] = Plasma levels after oral administration; type: in vivo

Compound	Immobilitätsphase im Rattenschwimmtest, in words ([1]; corresponding amount of Nimodipin, compared with N-Methyl-Nimodipin)	reduzierte Immobilitätsphase im Vergleich zur Kontrolle ([1]; 20 mg per os, n = 6)	Plasmaspiegel von Nimodipin und bekannten Nimodipinmetaboliten ([2]; oral administration of N-Methyl-nimodipin, after 15 minutes, compared with plasma levels after multiple administration of corresponding amounts of Nimodipin)	Plasmakonzentration an unverändertem N-Methyl-Nimodipin ([2]; oral administration, same time point (15 minutes), relative to the plasma levels of Nimodipin and metabolites)
COCCOC(=O)C1=C(C)NC(C)=C(C(=O)OC(C)C)C1c1cccc([N+](=O)[O-])c1 (racemic) [Nimodipin, (±)2,6-Dimethyl-4-(3-nitrophenyl)-1,4-dihydropyridin-3,5-dicarbonsäure-isopropyl-2-methoxyethyl-ester]	vergleichbare Ergebnisse	–	–	–
COCCOC(=O)C1=C(C)N(C)C(C)=C(C(=O)OC(C)C)C1c1cccc([N+](=O)[O-])c1 (racemic) [N-Methyl-nimodipin, (±)-1,2,6-Trimethyl-4-(3-nitrophenyl)-1,4-dihydropyridin-3,5-dicarbonsäure-isopropyl-2-methoxyethyl-ester]	–	ca. 20%	mindestens so hoch sind wie die entsprechenden Plasmaspiegel nach Mehrfachapplikation entsprechender Nimodipinmengen	etwa doppelt so hohe Plasmakonzentration
